For assay [1], the target named is T1, type 1 5α-reductase (Homo sapiens, UniProt P18405).
T1 construct: Preparation of Human Prostatic and Scalp 5α-reductases; from tissue; host or cells: human scalp (crude nuclear pellet of the homogenate)
T1 sequence (P18405 1-259): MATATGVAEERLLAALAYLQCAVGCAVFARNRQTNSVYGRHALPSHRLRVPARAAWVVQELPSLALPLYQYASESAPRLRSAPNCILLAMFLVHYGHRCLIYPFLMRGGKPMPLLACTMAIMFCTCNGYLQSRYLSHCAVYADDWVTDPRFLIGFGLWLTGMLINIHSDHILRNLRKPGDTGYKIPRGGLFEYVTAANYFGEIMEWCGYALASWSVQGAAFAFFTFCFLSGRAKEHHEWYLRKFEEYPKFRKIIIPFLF
Kind of assay: 5α-reductase assay, type 1 (human scalp homogenate), inhibition studies. In kind it is biochemical. The protocol:
(§1) Samples of human tissue were pulverized using a freezer mill and homogenized in 40 mM potassium phosphate, pH 6.5, 5 mM magnesium sulfate, 25 mM potassium chloride, 1 mM phenylmethyl-sulfonyl fluoride, 1 mM dithiothreitol (DTT) containing 0.25 M sucrose using a Potter-Elvehjem homogenizer. A crude nuclear pellet was prepared by centrifugation of the homogenate at 1,500× G for 15 min. The crude nuclear pellet was washed two times and resuspended in two volumes of buffer. Glycerol was added to the resuspended pellet to a final concentration of 20%. The enzyme suspension was frozen in aliquots at −80° C.
(§2) The reaction mixture for the type 1 5α-reductase contained 40 mM potassium phosphate, pH 6.5, […] [7-^3H]-testosterone, 1 mM dithiothreitol and 500 μM NADPH in a final volume of 100 μL. The reaction mixture for the type 2 5α-reductase contained 40 mM sodium citrate, pH 5.5 0.3 mM [7-^3H]-testosterone, 1 mM dithiothreitol and 500 μM NADPH in a final volume of 100 μL. Typically, the assay was initiated by the addition of 50-100 μg prostatic homogenate or 75-200 μg scalp homogenate and incubated at 37° C. After 10-50 min. the reaction was quenched by extraction with 250 μL of a mixture of 70% cyclohexane: 30% ethyl acetate containing 10 μg each DHT and T. The aqueous and organic layers were separated by centrifugation at 14,000 rpm in an Eppendorf microfuge. The organic layer was subjected to normal phase HPLC (10 cm Whatman partisil 5 silica column established in 1 ml/min 70% cyclohexane: 30% ethyl acetate; retention times: DHT, 6.8-7.2 min.; androstanediol, 7.6-8.0 min.; T, 9.1-9.7 min.). […] The conversion of T to DHT was monitored using the radioactivity flow detector by mixing the HPLC effluent with one volume of Flo Scint 1 (Radiomatic).
(§3) Compounds were dissolved in 100% ethanol. The compound to be tested was pre-incubated with the enzyme (either 5α-reductase type 1 or 2) prior to initiation by addition of substrate testosterone. […] Representative compounds of this invention were tested in the above described assay for 5α-reductase type 1 and type 2 inhibition.

Assay [2] deals with T2, type 2 5α-reductase (Homo sapiens, UniProt P31213).
T2 construct: Preparation of Human Prostatic and Scalp 5α-reductases; from tissue; host or cells: human prostate (crude nuclear pellet of the homogenate)
T2 sequence (P31213 1-254): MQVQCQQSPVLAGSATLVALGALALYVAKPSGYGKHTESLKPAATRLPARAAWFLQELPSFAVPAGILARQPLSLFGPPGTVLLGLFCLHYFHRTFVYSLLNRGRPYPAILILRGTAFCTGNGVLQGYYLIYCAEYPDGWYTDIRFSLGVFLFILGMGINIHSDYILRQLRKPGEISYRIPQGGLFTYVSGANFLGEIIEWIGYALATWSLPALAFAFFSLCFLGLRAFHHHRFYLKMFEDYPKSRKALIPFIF
In words: 5α-reductase assay, type 2 (human prostatic homogenate), inhibition studies. It is filed as biochemical. The protocol: as §1, §2, §3

Assay [3] concerns the target T3, human androgen receptor (Homo sapiens, UniProt P10275).
T3 sequence (P10275 1-920): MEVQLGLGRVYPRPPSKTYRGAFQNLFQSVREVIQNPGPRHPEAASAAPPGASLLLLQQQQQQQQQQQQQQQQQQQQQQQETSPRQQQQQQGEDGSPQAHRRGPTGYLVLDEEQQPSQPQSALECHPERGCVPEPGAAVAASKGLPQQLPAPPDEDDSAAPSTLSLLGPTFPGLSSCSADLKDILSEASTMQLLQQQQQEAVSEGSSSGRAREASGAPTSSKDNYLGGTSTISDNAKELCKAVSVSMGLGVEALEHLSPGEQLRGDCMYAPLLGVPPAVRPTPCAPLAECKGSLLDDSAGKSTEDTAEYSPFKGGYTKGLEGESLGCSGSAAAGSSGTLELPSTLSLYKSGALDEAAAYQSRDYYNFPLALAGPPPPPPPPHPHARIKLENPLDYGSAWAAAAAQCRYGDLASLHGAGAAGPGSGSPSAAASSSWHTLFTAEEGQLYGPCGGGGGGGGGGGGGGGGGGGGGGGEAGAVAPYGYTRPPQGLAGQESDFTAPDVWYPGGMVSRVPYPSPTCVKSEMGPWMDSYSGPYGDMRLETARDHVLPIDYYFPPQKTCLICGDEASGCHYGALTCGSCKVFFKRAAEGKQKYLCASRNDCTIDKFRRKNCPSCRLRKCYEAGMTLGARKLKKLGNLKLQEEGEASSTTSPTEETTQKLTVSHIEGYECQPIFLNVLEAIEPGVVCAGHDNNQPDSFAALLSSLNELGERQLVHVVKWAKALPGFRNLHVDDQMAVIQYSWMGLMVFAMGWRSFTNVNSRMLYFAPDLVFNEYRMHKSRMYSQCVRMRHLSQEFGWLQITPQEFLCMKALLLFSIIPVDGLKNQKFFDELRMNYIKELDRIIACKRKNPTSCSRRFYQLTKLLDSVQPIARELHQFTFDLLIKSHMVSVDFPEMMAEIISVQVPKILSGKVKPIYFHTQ
Kind of assay: Human androgen receptor activity assay (anti-androgen activity, hAR). In kind it is binding.

Where [4] appears, read: human, conversion of testosterone to DHT, pH 6.5, read-out: IC50 Type 1 5aR.
[5] abbreviates: human, conversion of testosterone to DHT, pH 5.5, read-out: IC50 Type 2 5aR.
[6] abbreviates: human, anti-androgen activity, read-out: IC50 hAR.

Like-named read-outs stand apart in the source and are kept apart here.

For orientation: IC50 means the concentration that gives 50% inhibition. For `CN1C(=O)C=C[C@]2(C)[C@H]3CC[C@]4(C)[C@@H](C(=O)Nc5cc(C(F)(F)F)ccc5C(F)(F)F)CC[C@H]4[C@@H]3CC[C@@H]12` [Example 7, N-(2,5-bistrifluoromethyl-phenyl)-3-oxo-4-aza-4-methyl-5α-androst-1-ene-17β-carboxamide], the IC50 in assay [1] was found to be 0.004 µM; in assay [2], 0.02 µM; in assay [3], 0.02 µM.

Take `CN(C(=O)[C@H]1CC[C@H]2[C@@H]3CC[C@H]4N(C)C(=O)C=C[C@]4(C)[C@H]3CC[C@]12C)C(c1ccccc1)c1ccccc1` [Example 11, N-(diphenylmethyl)-N-(methyl)-4-methyl-3-oxo4-aza-5α-androst-1-ene-17-β-carboxamide]: the IC50 turned out to be 0.003 µM in assay [1] (setting [4]), 0.0003 µM in assay [2] (setting [5]) and 0.85 µM in assay [3] (setting [6]).

For the molecule `CN1C(=O)C=C[C@]2(C)[C@H]3CC[C@]4(C)[C@@H](C(=O)Nc5ccccc5C(F)(F)F)CC[C@H]4[C@@H]3CC[C@@H]12` [Example 4, N-(2-trifluoromethyl-phenyl)-3-oxo-4-aza-4-methyl-5α-androst-1-ene-17β-carboxamide], the figures for the IC50 in assay [1], in assay [2] and in assay [3] were 0.002 µM, 0.007 µM and 0.03 µM, respectively.

For `COc1ccccc1NC(=O)[C@H]1CC[C@H]2[C@@H]3CC[C@H]4N(C)C(=O)C=C[C@]4(C)[C@H]3CC[C@]12C` [Example 2, N-(2-methoxyphenyl)-3-oxo-4-aza-4-methyl-5α-androst-1-ene-17β-carboxamide], the IC50 turned out to be 0.02 µM in assay [1], 0.1 µM in assay [2] and 0.04 µM in assay [3].

For `CN1C(=O)C=C[C@]2(C)[C@H]3CC[C@]4(C)[C@@H](C(=O)Nc5ccc(Cl)cc5)CC[C@H]4[C@@H]3CC[C@@H]12` [Example 1, N-(4-chlorophenyl)-3-oxo-4-methyl-4-aza-5α-androst-1-ene-17β-carboxamide], the IC50 in assay [1] came to 0.04 µM; in assay [2], 0.1 µM; in assay [3] (setting [6]), 0.01 µM.

`CN1C(=O)C=C[C@]2(C)[C@H]3CC[C@]4(C)[C@@H](C(=O)Nc5ccccc5F)CC[C@H]4[C@@H]3CC[C@@H]12` [Example 3, N-(2-fluorophenyl)-3-oxo-4-aza-4-methyl-5α-androst-1-ene-17β-carboxamide]: the IC50 in assay [1] came to 0.02 µM; in assay [2], 0.06 µM; in assay [3], 0.009 µM.

`CN1C(=O)C=C[C@]2(C)[C@H]3CC[C@]4(C)[C@@H](C(=O)Nc5ccccc5Cl)CC[C@H]4[C@@H]3CC[C@@H]12` [Example 6, N-(2-chlorophenyl)-3-oxo-4-aza-4-methyl-5α-androst-1-ene-17β-carboxamide]: the results for the IC50 in assay [1], in assay [2] and in assay [3] were 0.006 µM, 0.01 µM and 0.008 µM, respectively.

On to `Cc1ccccc1NC(=O)[C@H]1CC[C@H]2[C@@H]3CC[C@H]4N(C)C(=O)C=C[C@]4(C)[C@H]3CC[C@]12C` [Example 5, N-(2-methylphenyl)-3-oxo-4-aza-4-methyl-5α-androst-1-ene-17β-carboxamide], for which the results for the IC50 in assay [1], in assay [2] and in assay [3] were 0.02 µM, 0.02 µM and 0.03 µM, respectively.

Regarding `CN1C(=O)C=C[C@]2(C)[C@H]3CC[C@]4(C)[C@@H](C(=O)NC(c5ccccc5)c5ccccc5)CC[C@H]4[C@@H]3CC[C@@H]12` [Example 10, N-(diphenylmethyl)-4-methyl-3-oxo-4-aza-5α-androst-1-ene-17-β-carboxamide], the IC50 in assay [1] (setting [4]) worked out at 0.02 µM; in assay [2] (setting [5]), 0.002 µM; in assay [3] (setting [6]), 0.04 µM.
